In US5843941A, “Ras farnesyl transferase inhibitors” (Genentech, Inc., priority 1994, dated 1998):

Columns and labels:
[1] = system: nuclear lamins A and B in Met18b-2 cells; test: [3H]mevalonate labeling of farnesylated nuclear lamins in Met18b-2 cells; assay type: cell-based, Chinese hamster; details: 250 μM; FIG. 3
Description: To study farnesylation in intact cells we used Met18b-2 cells, a line of Chinese hamster ovary (CHO) cells that takes up [3H]mevalonate efficiently (see Faust, J., and Krieger, M. J. Biol. Chem. 262, 1966 (1987)) owing to the production of a mevalonate transport protein (see Kim, C. M., Goldstein, J. L., Brown, M. S. J. Biol. Chem. 267, 23113 (1992)). The [3H]mevalonate is converted by the cells into [3H]farnesyl pyrophosphate and [3H]geranylgeranyl pyrophosphate, which are then attached to proteins (Kim, C. M., Goldstein, J. L., Brown, M. S. J. Biol. Chem. 267, 23113 (1992)). In the assay, stock cultures of Met18b-2 cells were seeded at a density of 3-105 cells per 60 mm dish in 3 ml of medium A (Dulbecco's modified Eagle medium/Ham's F12 medium (1:1, v/v) containing 100 U/ml penicillin and 100 μg/ml streptomycin) supplemented with 5% (v/v) fetal calf serum (FCS). On day 3, each monolayer was refed with 1 ml medium A supplemented with 1% FCS (dialyzed against 0.15 M NaCl). At this point the cells were treated with 100 μM compactin (see Brown, M. S., Faust, J. R., Goldstein, J. L., Kaneko, I., and Endo, A. J. Biol. Chem. 253, 1121 (1978)) which blocks the synthesis of unlabeled mevalonate within the cells. […] Protein concentrations were determined using the BCA protein assay reagent (Pierce) according to the manufacturer's instructions. […]

SW-480 cells = test: Growth inhibition of human tumor line SW-480; assay type: cell-based; details: SW480, SW-480, colon, ras transformed, read-out: % growth inhib.
Protocol: To examine the effects of farnesyltransferase inhibition on cell growth, three cell lines (ras-transformed rat-1, src-transformed rat-1, and parental rat-1 cells) were seeded (see FIG. 7) at low density and allowed to grow for 10 days in the absence or presence of increasing concentrations of BZA-5B (compound 37). See Example 128 for description of cells. On day 0, cells were plated in monolayer culture at 2×10^3 cells per well (24-well plates) in 1 ml DMEM supplemented with 10% fetal calf serum, 100 U/ml penicillin, 100 μg/ml streptomycin, 0.5 mM DTT, 0.025% DMSO, and the indicated concentration of BZA-5B (compound 37). On days 3 and 7, cells were washed and refed with the same medium. At the time indicated in FIG. 7, cells were harvested by trypsinization and counted in a Coulter counter. Panels A, C, E show the growth rate of each cell line in the absence of inhibitor. Panels B, D, F show the inhibition of growth as a function of concentration of BZA-5B at each time point. […]
To examine the effects of farnesyltransferase inhibition on the growth of human tumor cell lines, several such lines were treated with 25 μM BZA-5B (compound 37B) using a procedure similar to that described in Example 129 above. Cells were refed with fresh media at days 3 and 6 containing the inhibitor, and were harvested and counted as described above. […]

Structure (SMILES)	labeling of farnesylated lamins (F-NL) [1]	inhibition at 25 µM (SW-480 cells) [%]
CSCC[C@H](NC(=O)CN1C(=O)C(N(C)C(=O)[C@@H](N)CS)N=C(c2ccccc2)c2ccccc21)C(=O)O (single isomer, unassigned) [27B]	reduced moderately the labeling of the farnesylated lamins	
COC(=O)[C@H](CCSC)NC(=O)CN1C(=O)C(N(C)C(=O)[C@@H](N)CS)N=C(c2ccccc2)c2ccccc21 (single isomer, unassigned) [37B]		45
